In PMC3515654 (ChemMedChem, 2011):

What was measured:
[1] = molecular target: D1-like dopamine receptors (Sus scrofa, UniProt P50130); type: binding; details: porcine striatum; for Fold D1-like Selectivity: ratio of D2-like Ki to D1-like Ki
[2] = molecular target: D2-like dopamine receptors (Sus scrofa, UniProt A0ACM8QMZ9); details: porcine striatal binding, D1-like vs D2-like
[3] = pKa of synthetic acids, used for separation by titration; type: physicochemical

Chain of D1-like dopamine receptors (P50130 whole entry): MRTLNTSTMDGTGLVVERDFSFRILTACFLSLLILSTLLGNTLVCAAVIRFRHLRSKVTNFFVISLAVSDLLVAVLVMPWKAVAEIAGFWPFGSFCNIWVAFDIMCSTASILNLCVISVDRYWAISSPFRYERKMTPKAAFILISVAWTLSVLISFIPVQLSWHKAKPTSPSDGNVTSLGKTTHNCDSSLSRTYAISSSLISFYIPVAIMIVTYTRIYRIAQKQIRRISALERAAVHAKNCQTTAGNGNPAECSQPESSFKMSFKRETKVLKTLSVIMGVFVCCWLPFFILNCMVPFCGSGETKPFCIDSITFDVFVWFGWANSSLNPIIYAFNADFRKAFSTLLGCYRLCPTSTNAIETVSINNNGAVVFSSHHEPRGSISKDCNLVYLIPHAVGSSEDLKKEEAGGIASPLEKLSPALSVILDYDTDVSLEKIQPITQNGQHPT
Chain of D2-like dopamine receptors (A0ACM8QMZ9 1-443): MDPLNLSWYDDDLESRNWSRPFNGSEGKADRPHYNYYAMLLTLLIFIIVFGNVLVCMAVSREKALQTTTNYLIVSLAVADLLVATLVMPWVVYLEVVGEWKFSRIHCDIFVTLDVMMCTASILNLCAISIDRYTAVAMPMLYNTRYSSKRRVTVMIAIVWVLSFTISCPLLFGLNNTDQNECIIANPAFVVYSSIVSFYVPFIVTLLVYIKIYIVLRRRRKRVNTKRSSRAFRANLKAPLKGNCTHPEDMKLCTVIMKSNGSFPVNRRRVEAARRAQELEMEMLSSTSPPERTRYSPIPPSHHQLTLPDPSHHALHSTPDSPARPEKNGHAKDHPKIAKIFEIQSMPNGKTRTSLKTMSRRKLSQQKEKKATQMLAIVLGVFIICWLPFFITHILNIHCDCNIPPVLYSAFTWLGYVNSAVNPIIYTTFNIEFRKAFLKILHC

Row | SMILES | Fold D1-like Selectivity [1] [fold] | other results
1 | Br.NC[C@H]1C[C@@H](C23CC4CC(CC(C4)C2)C3)Cc2c1ccc(O)c2O (relative stereo) [3c, Cis-5-(aminomethyl)-7-adamantyl-5,6,7,8-tetrahydronaphthalene-1,2-diol hydrobromide] | 55 | Fold higher binding affinity at D1-like receptors compared to 2c ([1]; relative to 2c): ~20 fold
2 | NC[C@@H]1O[C@H](C23CC4CC(CC(C4)C2)C3)Cc2c1ccc(O)c2O [1c, reference compound] | 480 | 
3 | NC[C@@H]1O[C@H](c2ccccc2)Cc2c1ccc(O)c2O [1d, reference compound] | 92 | 
4 | Cl.NCC1CCOc2c1ccc(O)c2O (stereo not drawn) [2a, 7,8-Dihydroxy-4-aminomethylchroman hydrochloride] |  | Receptor subtype selectivity [2]: selectivity for D2-like receptors
5 | COc1cccc(C2OC(=O)CC2C(=O)O)c1OC (stereo not drawn) [compound 18, 2-(2,3-Dimethoxyphenyl)-5-oxo-tetrahydrofuran-3-carboxylic acid] |  | pKa [3]: ~3.6
